In the supplement of paper PMC10307832:

Experiments:
Assay in all cases: relative viability (nuclei count vs DMSO), 5 days (fraction); higher = more cells survive
NCI-H1437 = test system: NCI-H1437
How it was run: (§1)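 Nuclei were stained with Hoechst during a one-step fixation (final 0.05% Triton X-100, 1% formaldehyde, 1 ug/ml Hoechst) carried out 5 days after dosing, then counted on 4× images. The cells, lung cancer lines in 1536-well plates, had been dosed by pin tool the day after seeding with one drug alone or a fixed anchor-drug dose plus five library-drug doses (not always all listed) in √10 steps. Relative viability is the nuclei count in treated wells divided by that in vehicle wells, and each value is the median of duplicate plates.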

NCI-H23 = test system: NCI-H23
How it was run: as §1

HCC-366 = test system: HCC-366
How it was run: as §1

SW 1573 = test system: SW 1573
How it was run: as §1

NCI-H727 = test system: NCI-H727
How it was run: as §1

NCI-H460 = test system: NCI-H460
How it was run: as §1

HCC-827 = test system: HCC-827
How it was run: as §1

CAL-12T = test system: CAL-12T
How it was run: as §1

LCLC-103H = test system: LCLC-103H
How it was run: as §1

HOP-62 = test system: HOP-62
How it was run: as §1

SK-LU-1 = settings: first compound 0.04 µM
How it was run: as §1

## Cc1sc2c(c1C)C(c1ccc(Cl)cc1)=N[C@@H](CC(=O)OC(C)(C)C)c1nnc(C)n1-2 [JQ1] + COc1cc2c(Oc3ccc(NC(=O)C4(C(=O)Nc5ccc(F)cc5)CC4)cc3F)ccnc2cc1OCCCN1CCOCC1 [Foretinib] (partner 0.25 µM)
NCI-H1437; first compound 0.04 µM
  relative viability: 1.11
NCI-H1437; first compound 0.1265 µM
  relative viability: 1.23
NCI-H1437; first compound 0.4 µM
  relative viability: 1.03
NCI-H1437; first compound 1.265 µM
  relative viability: 0.464
NCI-H1437; first compound 4 µM
  relative viability: 0.384
NCI-H23; first compound 0.04 µM
  relative viability: 0.986
NCI-H23; first compound 0.1265 µM
  relative viability: 0.772
NCI-H23; first compound 0.4 µM
  relative viability: 0.546
NCI-H23; first compound 1.265 µM
  relative viability: 0.558
NCI-H23; first compound 4 µM
  relative viability: 0.297
HCC-366; first compound 0.04 µM
  relative viability: 0.994
HCC-366; first compound 0.4 µM
  relative viability: 0.827
HCC-366; first compound 1.265 µM
  relative viability: 0.359
HCC-366; first compound 4 µM
  relative viability: 0.266
SW 1573; first compound 0.04 µM
  relative viability: 0.907
SW 1573; first compound 0.1265 µM
  relative viability: 0.837
SW 1573; first compound 0.4 µM
  relative viability: 0.777
SW 1573; first compound 1.265 µM
  relative viability: 0.439
SW 1573; first compound 4 µM
  relative viability: 0.384
NCI-H727; first compound 0.04 µM
  relative viability: 0.841
NCI-H727; first compound 0.1265 µM
  relative viability: 0.864
NCI-H727; first compound 0.4 µM
  relative viability: 0.537
NCI-H727; first compound 1.265 µM
  relative viability: 0.336
NCI-H727; first compound 4 µM
  relative viability: 0.438
NCI-H460; first compound 0.04 µM
  relative viability: 0.901
NCI-H460; first compound 0.1265 µM
  relative viability: 0.932
NCI-H460; first compound 0.4 µM
  relative viability: 0.628
NCI-H460; first compound 1.265 µM
  relative viability: 0.12
NCI-H460; first compound 4 µM
  relative viability: 0.112
HCC-827; first compound 0.04 µM
  relative viability: 1.1
HCC-827; first compound 0.4 µM
  relative viability: 1.14
HCC-827; first compound 1.265 µM
  relative viability: 1.22
HCC-827; first compound 4 µM
  relative viability: 0.907
CAL-12T; first compound 0.04 µM
  relative viability: 1.16
CAL-12T; first compound 0.1265 µM
  relative viability: 0.747
CAL-12T; first compound 0.4 µM
  relative viability: 0.858
CAL-12T; first compound 1.265 µM
  relative viability: 0.351
CAL-12T; first compound 4 µM
  relative viability: 0.307
LCLC-103H; first compound 0.04 µM
  relative viability: 0.765
LCLC-103H; first compound 0.1265 µM
  relative viability: 0.6
LCLC-103H; first compound 0.4 µM
  relative viability: 0.562
LCLC-103H; first compound 1.265 µM
  relative viability: 0.481
LCLC-103H; first compound 4 µM
  relative viability: 0.301
HOP-62; first compound 0.04 µM
  relative viability: 0.982
HOP-62; first compound 0.1265 µM
  relative viability: 0.848
HOP-62; first compound 0.4 µM
  relative viability: 0.348
HOP-62; first compound 1.265 µM
  relative viability: 0.241
HOP-62; first compound 4 µM
  relative viability: 0.124
SK-LU-1
  relative viability: 0.848
